According to US4378360A, “6-{3-[4-(Substituted benzyl)-1-piperazinyl]propyloxy}-4,9-dihydro-4,9-dioxo-1H-naphtho[2,3-d-]- v” (Beecham Group Limited, priority 1980, dated 1983):
“And” between values parts separate entries of the source, which are not always exact repeats. Equal values may be shown once.

Assays:
[1] = tested on: rat passive peritoneal anaphylaxis; experiment: Rat passive peritoneal anaphylaxis (PPA): histamine, SRS-A and dye in peritoneal fluid; type: in vivo; conditions: mean ± SEM, 5-7 rats per group
Description: (a) inhibit rat passive peritoneal anaphylaxis; and
(a) Rat passive peritoneal anaphylaxis (PPA)
The method has been described previously (Ross, Janet W., Smith, H. and Spicer, Barbara A. Increased vascular permeability during passive peritoneal anaphylaxis in the rat, Int Arch Allergy appl Immun, 51, 226, 1976).
(§1) Charles River Sprague Dawley male rats of 225-275 g and Dunkin Hartley male white guinea pigs of 250-300 g were used.
This was raised in rats in one of two ways.
Charles River Sprague Dawley male rats of 225 to 275 g were given subcutaneous injections of 10 μg of ovalbumin (chicken egg albumin; crystallised and lyophilised, grade 3, Sigma London), in 0.5 ml of a suspension prepared by adding 1 ml of a 0.1 mg/ml solution of ovalbumin, in isotonic saline, to 4 ml of a 1% suspension of aluminium hydroxide in saline (Alhydrogel; Miles Laboratories, England; diluted 1:1 with isotonic saline). The rats were bled on day 10.
Charles River Sprague Dawley male rats of 225 to 300 g were given intraperitoneal injections of 0.5 ml of Bordetella pertussis vaccine (4×10^10 organisms/ml Burroughs Wellcome, London) and subcutaneous injections of 0.5 ml of an emulsion of 100 mg of ovalbumin of 2 ml of isotonic saline and 3 ml of Freund's incomplete adjuvant (Pifco Laboratories, Michigan USA). The rats were bled on day 18.
The rats were bled by cardiac puncture, the blood was pooled, from groups of rats treated similarly, and the serum separated, stored at -20° and thawed only once before use. The serum sensitised rats for passive cutaneous anaphylaxis (carried out as described: Spicer, Barbara A; Ross, Janet W and Smith, H; Inhibition of immediate hypersensitivity reactions in the rat by disodium cromoglycate and a nitroindanedione, Clin exp, Immunol, 21, 419, 1975) to a dilution of 1:32 to 1:64 persisting for at least 72 hours after sensitisation.
Rats were given intraperitoneal injections of 2 ml of a 1:5 dilution of the rat anti-serum in isotonic saline. Two hours later 0.3 ml of a 5% solution of Pontamine Sky Blue (Raymond A. Lamb, London) in isotonic saline was injected intravenously, followed by an intraperitoneal injection of the test compound in 1 ml of saline; (control rats received 1 ml of saline); followed 30 seconds later by an intraperitoneal injection of 5 ml of a Tyrode solution containing 50 μg/ml heparin and 0.4 mg/ml of ovalbumin. The concentrations of the compounds were quoted as those in the 6 ml of fluid injected intraperitoneally. Exactly 5 minutes after challenge the rats were stunned and bled and their peritoneal fluids were collected by opening their peritoneal cavities over funnels into polycarbonate tubes in ice. The supernatants were separated from the cellular residue by centrifuging at 150 g for 5 minutes and any samples obviously contaminated with blood were discarded for estimattion of dye, histamine and SRS-A. Groups of at least 5 rats were used for each dose of compound and the treatments were randomised.
Collected peritoneal fluids were immediately cooled to 0° C. and centrifuged and the supernatant fluids assayed for dye within 2 hours. 0.5 ml samples of the supernatants were added to 1 ml of 12% trichloracetic acid and stored at -20° C. and used to assay for histamine. The remainders of the supernatant fluids were placed in a boiling water bath for 5 minutes and stored frozen at -20° C. until assayed for SRS-A.
The optical densities (OD) at 625 nm of the supernatants were determined. Samples were taken from supernatants with an OD greater than 2 and diluted in Tyrode's solution before reading.
Histamine was assayed using an automated spectrofluorimetric system (Technicon Autoanalyser) by a method similar to that of Evans, D.P., Lewis, J. A. and Thomson, D. S.; (An automated fluorimetric assay for the rapid determination of histamine in biological fluids. Life Sci 12,327, 1973). […]

[2] = molecular target: T1, histamine on isolated guinea pig ileum (Cavia porcellus, UniProt P31389); experiment: Antihistamine activity (in vitro): antagonism of the spasmogenic effects of histamine on isolated guinea pig ileum; conditions: Tyrode solution, 30° C., antagonist 5-640 ng/ml, several assays per compound
T1 construct: strips of terminal guinea pig ileum suspended in a 4 ml capacity organ bath; from tissue; host or cells: terminal ileum strips of guinea pig (Dunkin Hartley male white guinea pigs)
T1 sequence (P31389 whole entry): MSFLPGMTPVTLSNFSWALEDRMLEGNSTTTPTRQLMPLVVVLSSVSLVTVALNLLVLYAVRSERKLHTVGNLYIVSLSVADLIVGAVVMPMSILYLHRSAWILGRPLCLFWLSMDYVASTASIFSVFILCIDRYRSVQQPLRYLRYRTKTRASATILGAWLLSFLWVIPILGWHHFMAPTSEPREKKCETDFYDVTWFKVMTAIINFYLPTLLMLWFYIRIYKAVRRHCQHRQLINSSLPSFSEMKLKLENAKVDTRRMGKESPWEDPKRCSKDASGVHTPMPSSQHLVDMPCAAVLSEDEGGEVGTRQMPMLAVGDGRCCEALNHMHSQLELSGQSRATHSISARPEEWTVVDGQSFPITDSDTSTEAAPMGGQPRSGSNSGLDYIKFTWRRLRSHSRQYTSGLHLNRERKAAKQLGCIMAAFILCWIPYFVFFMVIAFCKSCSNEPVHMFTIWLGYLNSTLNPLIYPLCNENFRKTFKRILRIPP
Procedure: (b) antagonise the spasmogenic effects of histamine on isolated guinea pig ileum.
as §1
The anti-histamine activity of these compounds were measured in terms of pA2 values on guinea pig ileum using the method described by Arunlakshana, O. and Schild, H. O. (Brit J Pharm, 14, 1959, 48).
The pA2 is defined as the negative logarithm of the molar concentration of antagonist that will reduce the response of a double dose of agonist to that of a single dose.
Assays were carried out using strips of terminal guinea pig ileum suspended in a 4 ml capacity organ bath. The ileum was immersed in aerated Tyrode solution at a temperature of 30° C. and a tension of 1 gm was applied to the gut. Longitudinal contractions of the gut were recorded isotonically using a 2LD01 Devices transducer, a R2502-2 Devices optical wedge and a RE511.20 Smiths servoscribe flat bed recorder.
The tissue was constantly immersed in Tyrode solution washing was by fluid displacement from below. […]
The height of the response was measured in mms and a mean value calculated. […] The dose of histamine which produced a response of 100 mms were obtained for each curve from the graph and the ratio designated CR was calculated from [formula] […]

SMILES	Dye concentration in peritoneal fluid as % of mean of controls ([1]; 2 × 10^-5 M injected ip)	Histamine concentration in peritoneal fluid as % of mean of controls ([1]; 2 × 10^-5 M injected ip)	SRS-A concentration in peritoneal fluid as % of mean of controls ([1]; 2 × 10^-5 M injected ip)	Dye concentration in peritoneal fluid as % of mean of controls ([1]; 2 × 10^-6 M injected ip)	Histamine concentration in peritoneal fluid as % of mean of controls ([1]; 2 × 10^-6 M injected ip)	SRS-A concentration in peritoneal fluid as % of mean of controls ([1]; 2 × 10^-6 M injected ip)	Dye concentration in peritoneal fluid as % of mean of controls ([1]; 10^-5 M injected ip)	Histamine concentration in peritoneal fluid as % of mean of controls ([1]; 10^-5 M injected ip)	SRS-A concentration in peritoneal fluid as % of mean of controls ([1]; 10^-5 M injected ip)	Dye concentration in peritoneal fluid as % of mean of controls ([1]; 10^-6 M injected ip)	Histamine concentration in peritoneal fluid as % of mean of controls ([1]; 10^-6 M injected ip)	SRS-A concentration in peritoneal fluid as % of mean of controls ([1]; 10^-6 M injected ip)	Dye concentration in peritoneal fluid as % of mean of controls ([1]; 10^-7 M injected ip)	Histamine concentration in peritoneal fluid as % of mean of controls ([1]; 10^-7 M injected ip)	SRS-A concentration in peritoneal fluid as % of mean of controls ([1]; 10^-7 M injected ip)	Kb ([2]; read-out: pA2 values obtained in different assays (converted))	pA2 values obtained in different assays [2]
O=C1c2cc(OCCCN3CCN(Cc4ccc(Cl)cc4)CC3)ccc2C(=O)c2[nH]nnc21 [Example 1, 6-{3-[4-(4-Chlorobenzyl)-1-piperazinyl]propyloxy}-4,9-dihydro-4,9-dioxo-1H-naphtho[2,3-d]-v-triazole]	29 ± 2 % of mean of controls	16 ± 2 % of mean of controls	75 ± 13 % of mean of controls	47 ± 6 % of mean of controls	23 ± 3 % of mean of controls	119 ± 25 % of mean of controls	38 ± 3 % of mean of controls	17 ± 3 % of mean of controls	39 ± 8 % of mean of controls	54 ± 6 % of mean of controls	27 ± 5 % of mean of controls	65 ± 18 % of mean of controls	75 ± 7 % of mean of controls	90 ± 16 % of mean of controls	109 ± 18 % of mean of controls	1 nM and 0.501 nM (2×) and 1.26 nM	–
O=C1c2cc(OCCCN3CCN(Cc4ccccc4Cl)CC3)ccc2C(=O)c2[nH]nnc21 [Example 3, 6-{3-[4-(2-Chlorobenzyl)-1-piperazinyl]propyloxy}-4,9-dihydro-4,9-dioxo-1H-naphtho[2,3-d]-v-triazole]	–	–	–	–	–	–	–	–	–	–	–	–	–	–	–	–	9.1 and 9.0
O=C1c2cccc(OCCCN3CCN(Cc4ccc(Cl)cc4)CC3)c2C(=O)c2nn[nH]c21 [Example 4, 5-{3-[4-(4-Chlorobenzyl)-1-piperazinyl]-propyloxy}-4,9-dihydro-4,9-dioxo-1H-naphtho-[2,3-d]-v-triazole]	–	–	–	–	–	–	43 ± 2 % of mean of controls	10 ± 1 % of mean of controls	–	60 ± 11 % of mean of controls	27 ± 4 % of mean of controls	–	85 ± 9 % of mean of controls	67 ± 8 % of mean of controls	–	–	–
